# Measured values from US20250304533A1, “THERAPEUTIC ALKALOID COMPOUNDS” (Sensorium Therapeutics, Inc., priority 2022, published 2025).
# pIC50: −log10 of the molar value. Read-outs that look alike come from different tables or passages of the source.
# Tests used:
# PDE4A1A = target: T1, PDE4A1A (Homo sapiens, UniProt P27815); assay: Recombinant PDE4 Inhibition Assay of Example A2; assay type: biochemical; settings: recombinant enzyme
# T1 construct: purchased BPSBioscience
# Protocol: (§1) Recombinant PDE assay inhibition can be measured according to the BPSBioscience PDE4 assay kit, as described below.
# (§2) 1) Dilute 20 µM FAM-Cyclic-3′,5′-AMP stock 100-fold with PDE buffer to make a 200 nM solution. Make only sufficient quantity needed for the assay; store remaining […] stock solution in aliquots at −20° C. 2) Add 25 μl of FAM-Cyclic-3′,5′-AMP (200 nM) to each well designated “Positive Control”, “Test Inhibitor”, and “Substrate Control”. 3) Add 20 μl of PDE assay buffer to each well designated “Substrate Control” and 45 μl of PDE assay buffer to each well designated “Blank”. 4) Add 5 μl of inhibitor solution to each well designated “Test Inhibitor”. For the wells labeled “Positive Control”, “Substrate Control” and “Blank”, add 5 μl of the same solution without inhibitor (inhibitor buffer). 5) Thaw PDE on ice. Upon first thaw, briefly spin tube containing enzyme to recover the full contents of the tube. 6) Dilute PDE4 in PDE buffer to 7.5 pg/μl (0.15 ng/reaction)*. Initiate reaction by adding 20 μl of PDE4 (7.5 pg/μl) to the wells designated “Positive Control” and “Test Inhibitor.” 7) Incubate at room temperature for 1 hour.
# (§3) 1) Mix binding agent thoroughly and dilute binding agent 1:100 with binding agent diluent. 2) Add 100 μl diluted binding agent to each microwell. Incubate at room temperature for 1 hour with slow shaking. 3) Read the fluorescent polarization of the sample in a microtiter-plate reader equipped for the measurement of fluorescence polarization, capable of excitation at wavelengths ranging from 485±5 nm and detection of emitted light ranging from 528±10 nm. Blank value is subtracted from all other values.
# PDE4B2 = target: T2, PDE4B2 (Homo sapiens, UniProt Q07343); assay: Recombinant PDE4 Inhibition Assay of Example A2; assay type: biochemical; settings: recombinant enzyme
# T2 construct: purchased BPSBioscience
# Protocol: as §1, §2, §3
# PDE4D2 = target: T3, PDE4D2 (Homo sapiens, UniProt Q08499); assay: Recombinant PDE4 Inhibition Assay of Example A2; assay type: biochemical; settings: recombinant enzyme
# T3 construct: purchased BPSBioscience
# Protocol: as §1, §2, §3
# PDE4C1 = target: T4, PDE4C1 (Homo sapiens, UniProt Q08493); assay: Recombinant PDE4 Inhibition Assay of Example A2; assay type: biochemical; settings: recombinant enzyme
# T4 construct: purchased BPSBioscience
# Protocol: as §1, §2, §3
# SERT = target: T5, SERT (Homo sapiens, UniProt P31645); assay: SERT Inhibition Assay of Example A1 (Neurotransmitter Transporter fluorescence uptake, stable 5HTT cells); assay type: cell-based
# T5 construct: expressed in transfected cells
# Protocol: SERT inhibition was measured using a Neruotransmitter Transportation Fluorescence assay. Briefly, stable 5HTT cells were prepared in a 384 microwell plate. Compounds were prepared by in assay buffer (20 mM HEPES, 0.1% BSA). The compounds were added to the plated cells and incubated for 30 minutes at 37° C. 25 μL of dye solution (Molecular Devices Neurotransmitter Transporter Uptake Assay Kit) is added per well and incubated for 30 minutes at 37° C. The plates are then read on a plate reader.
# [1] = target: 5-HT transporter (“SERT”) (Homo sapiens, UniProt P31645); settings: Hill coefficient of binding curve, Harvey et al., 2011; cited from earlier work
# [2] = cited from earlier work
# [3] = class symbols, read-out: SERT IC50
# T5 sequence (P31645 whole entry, species assumed): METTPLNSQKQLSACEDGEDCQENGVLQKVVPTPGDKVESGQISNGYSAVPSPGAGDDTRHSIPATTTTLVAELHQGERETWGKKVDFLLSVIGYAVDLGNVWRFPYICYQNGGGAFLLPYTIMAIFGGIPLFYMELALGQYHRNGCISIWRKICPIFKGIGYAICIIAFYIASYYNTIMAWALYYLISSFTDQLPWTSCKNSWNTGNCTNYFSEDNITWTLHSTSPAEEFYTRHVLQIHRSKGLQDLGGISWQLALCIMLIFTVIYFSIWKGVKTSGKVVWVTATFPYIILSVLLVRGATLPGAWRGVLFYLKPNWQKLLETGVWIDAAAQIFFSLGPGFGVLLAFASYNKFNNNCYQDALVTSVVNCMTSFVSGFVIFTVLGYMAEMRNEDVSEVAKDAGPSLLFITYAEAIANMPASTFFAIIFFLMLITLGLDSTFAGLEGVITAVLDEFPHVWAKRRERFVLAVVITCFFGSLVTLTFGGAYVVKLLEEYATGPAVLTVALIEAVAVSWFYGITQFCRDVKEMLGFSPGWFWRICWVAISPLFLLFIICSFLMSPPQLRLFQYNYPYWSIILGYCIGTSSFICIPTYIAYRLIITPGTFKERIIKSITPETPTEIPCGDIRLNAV
# T4 sequence (Q08493 whole entry): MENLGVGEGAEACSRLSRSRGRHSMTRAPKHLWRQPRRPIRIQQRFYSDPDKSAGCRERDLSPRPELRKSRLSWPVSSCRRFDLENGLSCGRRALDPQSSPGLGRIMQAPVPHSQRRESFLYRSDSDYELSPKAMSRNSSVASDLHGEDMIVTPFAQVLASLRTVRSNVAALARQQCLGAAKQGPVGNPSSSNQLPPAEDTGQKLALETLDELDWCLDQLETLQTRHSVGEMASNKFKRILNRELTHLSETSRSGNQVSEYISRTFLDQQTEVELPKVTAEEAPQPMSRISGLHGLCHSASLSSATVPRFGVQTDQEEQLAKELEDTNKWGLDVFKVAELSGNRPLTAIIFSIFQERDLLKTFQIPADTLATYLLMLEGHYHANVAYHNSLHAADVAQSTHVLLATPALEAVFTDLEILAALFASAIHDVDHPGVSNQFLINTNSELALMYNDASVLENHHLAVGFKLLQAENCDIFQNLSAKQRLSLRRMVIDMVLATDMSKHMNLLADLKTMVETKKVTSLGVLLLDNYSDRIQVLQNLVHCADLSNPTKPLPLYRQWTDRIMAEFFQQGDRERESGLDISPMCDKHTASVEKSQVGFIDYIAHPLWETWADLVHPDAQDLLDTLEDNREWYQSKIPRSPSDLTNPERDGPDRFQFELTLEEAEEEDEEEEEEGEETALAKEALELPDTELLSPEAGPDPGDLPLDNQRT
# T1 sequence (P27815 1-647 isoform P27815-4): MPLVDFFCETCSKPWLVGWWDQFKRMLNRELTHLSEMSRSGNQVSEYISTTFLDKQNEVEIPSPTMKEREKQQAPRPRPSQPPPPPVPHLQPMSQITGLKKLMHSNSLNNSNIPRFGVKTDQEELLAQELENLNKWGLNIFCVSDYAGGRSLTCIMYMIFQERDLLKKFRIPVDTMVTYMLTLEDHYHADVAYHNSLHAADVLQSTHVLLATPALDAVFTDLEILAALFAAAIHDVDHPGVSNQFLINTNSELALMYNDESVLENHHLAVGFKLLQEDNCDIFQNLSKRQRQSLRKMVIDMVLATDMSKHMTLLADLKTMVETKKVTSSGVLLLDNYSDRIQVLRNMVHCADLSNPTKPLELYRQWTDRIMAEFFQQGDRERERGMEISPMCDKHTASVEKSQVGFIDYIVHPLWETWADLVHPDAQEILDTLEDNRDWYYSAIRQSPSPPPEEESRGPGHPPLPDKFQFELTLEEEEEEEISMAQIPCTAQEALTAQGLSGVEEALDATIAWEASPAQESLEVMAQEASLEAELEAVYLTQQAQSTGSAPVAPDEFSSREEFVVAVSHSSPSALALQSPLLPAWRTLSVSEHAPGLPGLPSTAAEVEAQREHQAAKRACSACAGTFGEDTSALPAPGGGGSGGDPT
# T3 sequence (Q08499 303-809): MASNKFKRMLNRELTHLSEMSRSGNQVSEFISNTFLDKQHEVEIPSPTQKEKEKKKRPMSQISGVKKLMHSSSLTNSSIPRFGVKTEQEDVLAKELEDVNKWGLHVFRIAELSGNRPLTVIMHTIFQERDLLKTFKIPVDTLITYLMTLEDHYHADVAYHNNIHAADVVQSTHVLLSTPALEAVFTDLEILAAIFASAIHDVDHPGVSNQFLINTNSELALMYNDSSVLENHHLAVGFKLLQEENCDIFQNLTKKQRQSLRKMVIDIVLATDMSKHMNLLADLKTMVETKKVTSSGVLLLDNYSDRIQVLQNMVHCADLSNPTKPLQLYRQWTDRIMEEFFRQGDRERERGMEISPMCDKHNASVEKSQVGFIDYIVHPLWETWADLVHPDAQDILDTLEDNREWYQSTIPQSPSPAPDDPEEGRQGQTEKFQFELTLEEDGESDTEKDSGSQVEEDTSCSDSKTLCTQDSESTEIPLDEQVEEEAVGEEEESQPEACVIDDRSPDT
# T2 sequence (Q07343 1-564 isoform Q07343-2): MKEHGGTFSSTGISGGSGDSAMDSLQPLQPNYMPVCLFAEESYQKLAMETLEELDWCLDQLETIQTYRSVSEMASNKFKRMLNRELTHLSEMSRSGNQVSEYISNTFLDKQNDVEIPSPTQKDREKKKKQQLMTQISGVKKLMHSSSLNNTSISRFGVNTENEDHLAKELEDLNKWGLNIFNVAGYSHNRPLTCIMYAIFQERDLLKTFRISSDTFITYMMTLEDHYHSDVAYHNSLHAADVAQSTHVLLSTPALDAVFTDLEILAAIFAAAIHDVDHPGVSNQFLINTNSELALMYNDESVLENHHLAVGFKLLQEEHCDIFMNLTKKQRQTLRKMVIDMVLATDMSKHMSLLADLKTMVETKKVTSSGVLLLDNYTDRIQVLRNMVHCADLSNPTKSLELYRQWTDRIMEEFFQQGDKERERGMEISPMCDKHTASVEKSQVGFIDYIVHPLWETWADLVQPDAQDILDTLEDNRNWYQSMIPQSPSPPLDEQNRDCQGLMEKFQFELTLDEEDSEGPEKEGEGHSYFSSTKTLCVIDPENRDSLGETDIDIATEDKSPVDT
# Sequence of 5-HT transporter (“SERT”) (P31645 whole entry, species assumed): as the sequence (P31645 whole entry, species assumed) above
smiles,measurement,setting,value
"COc1cc(C23C=CC(=O)CC2N(C)CC3)cc(OC)c1OC (centres unmarked) [Compound 144, 1-methyl-3a-(3,4,5-trimethoxyphenyl)-2,3,7,7a-tetrahydroindol-6-one]",pIC50,PDE4A1A,< 5.00
same,pIC50,PDE4B2,< 5.00
same,pIC50,PDE4D2,< 5.00
same,pIC50,PDE4C1,< 5.00
same,pIC50,SERT; [3],< 6.00
same,pIC50,SERT; read-out: SERT inhibition IC50,< 6.00
COc1ccc([C@@]23C=CC(=O)C[C@@H]2N(C)CC3)cc1OC [Mesembrenone],5-HT transporter (“SERT”) nH,[1],1.0
"COc1cc([C@@]23C=CC(=O)C[C@@H]2N(C)CC3)cc(I)c1OC [Compound 132, (3aR,7aS)-3a-(3-iodo-4,5-dimethoxy-phenyl)-1-methyl-2,3,7,7a-tetrahydroindol-6-one]",pIC50,PDE4A1A,< 5.00
same,pIC50,PDE4B2,< 5.00
same,pIC50,PDE4D2,< 5.00
same,pIC50,PDE4C1,< 5.00
same,pIC50,SERT; [3],6.30 to 7.00
same,pIC50,SERT; read-out: SERT inhibition IC50,> 6.00
"COc1cc([C@@]23C=CC(=O)C[C@@H]2N(C)CC3)cc(F)c1OC [Compound 133, (3aR,7aS)-3a-(3-fluoro-4,5-dimethoxy-phenyl)-1-methyl-2,3,7,7a-tetrahydroindol-6-one]",pIC50,PDE4A1A,5.00 to 6.00
same,pIC50,PDE4B2,5.00 to 6.00
same,pIC50,PDE4D2,< 5.00
same,pIC50,PDE4C1,< 5.00
same,pIC50,SERT; [3],6.30 to 7.00
same,pIC50,SERT; read-out: SERT inhibition IC50,> 6.00
COc1ccc([C@@]23CCC(=O)C[C@@H]2N(C)CC3)cc1OC [(−) mesembrine],half-life in plasma,[2],less than 2 hours
"COc1cc([C@@]23C=CC(=O)CC2N(C)CC3)cc(Br)c1OC (stereo partly drawn) [Compound 130, (3aR)-3a-(3-bromo-4,5-dimethoxy-phenyl)-1-methyl-2,3,7,7a-tetrahydroindol-6-one]",pIC50,PDE4A1A,< 5.00
same,pIC50,PDE4B2,< 5.00
same,pIC50,PDE4D2,< 5.00
same,pIC50,PDE4C1,< 5.00
same,pIC50,SERT; [3],6.00 to 6.30
same,pIC50,SERT; read-out: SERT inhibition IC50,> 6.00
